Values of other authors in patent US20250144122A1, “Scent-Changing Ointment & Method of Making The Same” (priority 2023, published 2025).

Legend:
[1] = in vivo
[2] = topical application, 3.5% gel

Row | SMILES | analgesic effect (pain threshold) [1] | blood flow remains reduced ([2]; at 10 minutes after application) | reduces blood flow ([2]; within 60 seconds of application)
1 | CC(C)[C@@H]1CC[C@@H](C)C[C@H]1O [(l)-menthol] | able to increase pain threshold |  | 
2 | CC1CCC(C(C)C)C(O)C1 (stereo not shown) [menthol, Menthol] |  | 20% | 35%
3 | CC1CC[C@H](C(C)C)[C@@H](O)C1 (stereo partly shown) [(d)-menthol] | completely devoid of any analgesic effect |  | 
